Reference: patent US8507509B2, “Saturated and insaturated bi- or tricyclic aryloxyacetamine derivatives and their use as fungicides” (Syngenta Crop Protection LLC, priority 2007, dated 2013)

Experiments:
Pyricularia oryzae = experiment: whole plant or invertebrate; format: in vivo; conditions: foliar, 96 h, read-out: control of fungal infection, Pyricularia oryzae
[1] = tested on: Erysiphe graminis f.sp. tritici; experiment: Erysiphe graminis f.sp. tritici (wheat powdery mildew), wheat leaf segment assay, preventive; format: in vivo; conditions: Blumeria graminis, foliar, 96 h; 200 ppm; wheat leaf segments; assessed four days after inoculation; read-out: control of fungal infection, Etysiphe graminis f.sp. tritici
[2] = tested on: Puccinia recondita f.sp. tritici; experiment: Puccinia recondita f.sp. tritici (wheat brown rust), wheat leaf segment assay, preventive; format: in vivo; conditions: foliar, 216 h, 200 ppm, wheat leaf segments, assessed nine days after inoculation, read-out: control of fungal infection, Puccinia recondite f.sp. tritici
Plasmopara viticola = Plasmopara viticola (downy mildew of grapevine), grapevine leaf disk assay, preventive; format: in vivo; conditions: foliar, 168 h, 200 ppm, grapevine leaf disks, assessed seven days after inoculation, read-out: control of fungal infection, Plasmopara viticola
Septoria tritici = Septoria tritici (leaf blotch), liquid culture growth inhibition in nutrient broth; format: cell-based; conditions: Zymoseptoria tritici; 200 ppm; PDB broth, 24 C; inhibition of growth determined photometrically after 72 hrs; read-out: control of fungal infection, Septoria tritici
Phytophthora infestans = experiment: whole plant or invertebrate; format: in vivo; conditions: in Solanum lycopersicum, foliar, 96 h, read-out: control of fungal infection, Phytophthora infestans
Septoria nodorum = Septoria nodorum (wheat glume blotch), wheat leaf segment assay, preventive; format: in vivo; conditions: Parastagonospora nodorum, foliar, 96 h; 200 ppm; wheat leaf segments; assessed four days after inoculation; read-out: control of fungal infection, Septoria nodorum
Pythium ultimum = Pythium ultimum (Damping off), liquid culture growth inhibition in potato dextrose broth; format: cell-based; conditions: Globisporangium ultimum; 20 ppm; potato dextrose broth, 24° C.; inhibition of growth determined photometrically after 48 hours; read-out: control of fungal infection, Pythium ultimum
Fusarium culmorum = Fusarium culmorum (root rot), liquid culture growth inhibition in nutrient broth; format: cell-based; conditions: PDB broth, 24 C, inhibition of growth determined photometrically after 48 hrs, read-out: control of fungal infection, Fusarium culmorum
In short: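 Fusarium culmorum conidia from cryogenic storage were mixed into potato dextrose broth and added to compound pre-dispensed from DMSO (diluted in 0.025% Tween20). Incubated at 24 C in the dark; growth inhibition read photometrically after 48 hrs.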

Botrytis cinerea = Botrytis cinerea (grey mould), bean leaf disk assay, preventive; format: in vivo; conditions: foliar, 96 h, 200 ppm, bean leaf disks, assessed four days after inoculation, read-out: control of fungal infection, Botrytis cinerea

Compound	pest or weed control at 200 ppm (Pyricularia oryzae)	pest or weed control at 200 ppm [1]	pest or weed control at 200 ppm [2]	pest or weed control at 200 ppm (Plasmopara viticola)	inhibition of growth at 200 ppm (Septoria tritici)	pest or weed control at 200 ppm (Phytophthora infestans)	pest or weed control at 200 ppm (Septoria nodorum)	inhibition of growth at 20 ppm (Pythium ultimum)	inhibition of growth at 200 ppm (Fusarium culmorum)	melting point	pest or weed control at 200 ppm (Botrytis cinerea)
C#Cc1cnc2ccc(OC(SC)C(=O)NC(C)(C)C=NOCC=C)cc2c1 (stereo not shown) [Compound No. 120, N-(2-Allyloxyimino-1,1-dimethyl-ethyl)-2-(3-ethynyl-quinolin-6-yloxy)-2-methylsulfanyl-acetamide]	≥ 60%	≥ 60%	≥ 60%	≥ 60%	≥ 60%	≥ 60%	≥ 60%	≥ 60%	–	–	–
C=CCON=CC(C)(C)NC(=O)C(Oc1cc(C)c2ncc(I)cc2c1)SC (stereo not shown) [Compound No. 45, N-(2-Allyloxyimino-1,1-dimethyl-ethyl)-2-(3-iodo-8-methyl-quinolin-6-yloxy)-2-methylsulfanyl-acetamide]	≥ 60%	≥ 60%	–	≥ 60%	≥ 60%	≥ 60%	≥ 60%	–	–	–	–
C#Cc1cnc2c(Cl)cc(OC(SC)C(=O)NC(C)(C)C=NOCC)cc2c1 (stereo not shown) [Compound No. 116, 2-(8-Chloro-3-ethynyl-quinolin-6-yloxy)-N-(2-ethoxyimino-1,1-dimethyl-ethyl)-2-methylsulfanyl-acetamide]	≥ 60%	–	–	≥ 60%	≥ 60%	≥ 60%	≥ 60%	≥ 60%	–	–	–
CSC(Oc1cc(C)c2ncc(Br)cc2c1)C(=O)NC(C)(C)C=NO (stereo not shown) [Compound No. 31, 2-(3-Bromo-8-methyl-quinolin-6-yloxy)-N-(2-hydroxyimino-1,1-dimethyl-ethyl)-2-methylsulfanyl-acetamide]	≥ 60%	≥ 60%	–	≥ 60%	–	≥ 60%	–	≥ 60%	≥ 60%	–	–
CON=CC(C)(C)NC(=O)C(OC)Oc1ccc2ncc(I)cc2c1 (stereo not shown) [Compound No. 72, 2-(3-Iodo-quinolin-6-yloxy)-2-methoxy-N-(2-methoxyimino-1,1-dimethyl-ethyl)-acetamide]	–	≥ 60%	≥ 60%	≥ 60%	≥ 60%	≥ 60%	≥ 60%	≥ 60%	≥ 60%	101 to 103 °C	≥ 60%
CCON=CC(C)(C)NC(=O)C(Oc1ccc2ncc(Br)cc2c1)SC (stereo not shown) [Compound No. 16, 2-(3-Bromo-quinolin-6-yloxy)-N-(2-ethoxyimino-1,1-dimethyl-ethyl)-2-methylsulfanyl-acetamide]	≥ 60%	≥ 60%	–	–	–	≥ 60%	–	≥ 60%	–	–	–
CCON=CC(C)(C)NC(=O)C(Oc1cc(C)c2ncc(Br)cc2c1)SC (stereo not shown) [Compound No. 27, 2-(3-bromo-8-methyl-quinolin-6-yloxy)-N-(2-ethoxyimino-1,1-dimethyl-ethyl)-2-methylsulfanyl-acetamide]	≥ 60%	–	–	–	≥ 60%	≥ 60%	–	–	–	–	–
CON=CC(C)(C)NC(=O)C(Oc1ccc2ncc(Br)cc2c1)SC (stereo not shown) [Compound No. 15, 2-(3-Bromo-quinolin-6-yloxy)-N-(2-methoxyimino-1,1-dimethyl-ethyl)-2-methylsulfanyl-acetamide]	≥ 60%	≥ 60%	–	≥ 60%	≥ 60%	≥ 60%	–	≥ 60%	–	–	–
